Experimental data from patent publication US20250135028A1, “TUNABLE POLYMERIC NANOPARTICLES FOR TARGETED AND SUSTAINED DELIVERY OF GLYCOPEPTIDE ANTIBIOTICS” (Insmed Incorporated, priority 2021, published 2025).

Legend:
[1] = Drug loading and encapsulation efficiency of drug loaded PNPs comprising pGlu(0.6C10) (HPLC); format: physicochemical; details: 2.5 mg drug
Description: To assess the ability of pGlu(0.6C10) to load positively charged antibiotics in the form of PNPs, we selected vancomycin, oritavancin, RV40 and RV94 as the drug payload. Vancomycin was chosen as a non-lipoglycopeptide control and the other three payloads were lipoglycopeptides. The polymers we used for loading and encapsulating the antibiotics were PLA(10K)-PEG(2K) (A) obtained from Nanosoft Polymers (Winston-Salem, NC, USA; SKU: 2693), pGlu (D) also obtained from Nanosoft Polymers (SKU: 10069), and pGlu(0.6C10) (E) (FIG. 4).
We prepared the drug loaded PNPs by using 10 mg of polymers and 2.5 mg of drug (FIG. 4). Specifically, polymers (10 mg) and drug (2.5 mg) were dissolved in 1.2 ml organic solvent mixture (DMSO: acetonitrile=0.5:0.7). The solution was injected into 10 ml deionized water stirred with a magnetic stirring bar. 1.1 ml 10×PBS solution was added to suspend nanoparticles in 1×PBS solution. The nanoparticles were washed using Amicon filter (100k cut-off) twice and resuspended in PBS. Drug loading in nanoparticle formulation was determined by HPLC with a WATERS™ T3 column. Acetonitrile/water was used as the mobile phase, and the wavelength of the UV detector was set at 281 nm.
EE is equal to mass of drug (mg) after wash/mass of drug input (i.e., 2.5 mg) *100%. With EE calculated as such, an EE of over 100% may be obtained on certain occasions due to standard error within the analytical measurement and represents complete encapsulation (i.e., 100% EE).

[2] = Pharmacokinetic study of oritavancin-loaded PNPs in rat osteomyelitis model (plasma and tibia, LC-MS/MS); format: in vivo; details: osteomyelitis rats, 6 mg/kg intravenous
Description: A rat model of bacterial osteomyelitis of the tibia was generated via intraosseous injection of MRSA ATCC 43300 at a target challenge dose of 7 log10 CFU of the bacteria per rat. Briefly, rats were anaesthetized by isoflurane and the infection was initiated via injection of the bacteria through the upper condyle of the right tibia into the cancellous bone marrow of a rat. The inoculation was made on the anterior surface of the tibia. The area was located by running a ½ inch 27-gauge needle against the skin, along the anterior crest of the tibia. The needle slipped over the tip of the tuberosity, which was located between the medial and lateral condyles. A rough depression could be felt with the tip of the needle. The patella tendon (silver in color) connected at this point. Once identified, the needle was pushed into the metaphysis using slight pressure and rotating motion. The needle was removed and replaced with a new ½ inch 27 gauge needle, and 30 μL of bacteria was inoculated into the bone marrow cavity. The needle was removed and the animal was allowed to recover from anesthesia.
Three weeks (21 days) after the initiation of the bacterial infection, the osteomyelitis rats were divided into three treatment groups, with five rats in each group. […] The concentrations of oritavancin in the plasma and tibia samples were quantified using LC-MS/MS.

[3] = Drug loading and encapsulation efficiency of drug loaded PNPs comprising pGlu(0.6C10)-PEG (HPLC); format: physicochemical; details: 5 mg drug
Description: To assess the ability of pGlu(0.6C10)-PEG to load positively charged antibiotics in the form of PNPs, we selected vancomycin and RV94 as the antibiotic drug payload in a first study (study 1) (Table 5), and additionally included oritavancin and RV40 as the antibiotic drug payload in a second study (study 2) (Table 6). The polymers we used for loading and encapsulating the antibiotics were PLA-PEG (A) (Nanosoft Polymers, SKU: 2693), pGlu-PEG (B) (Nanosoft Polymers, SKU: 2917), and pGlu(0.6C10)-PEG (C) (FIG. 10).
We prepared the drug loaded PNPs by using 20 mg of polymers and 5 mg of drug (FIG. 10). Specifically, polymers (20 mg) and drug (5 mg) were dissolve in 1 ml organic solvent mixture (DMSO: acetonitrile=1:1). The solution was injected into 20 ml deionized water stirred with a magnetic stirring bar. The nanoparticles were washed using Amicon filter (100k cut-off) twice and resuspended in deionized water. Drug loading in nanoparticle formulation was determined by HPLC with a WATERS™ T3 column. Acetonitrile/water was used as the mobile phase, and the wavelength of the UV detector was set at 281 nm.
Drug loading is equal to mass of drug (mg) after wash/(mass of drug (mg) after wash+mass of polymer input (i.e., 20 mg))*100%.
EE is equal to mass of drug (mg) after wash/mass of drug input (i.e., 5 mg)*100%.

[4] = PNP with PLA-PEG (A) 5 mg + pGlu (D) 5 mg
[5] = PNP with PLA-PEG (A) 5 mg + pGlu(0.6C10) (E) 5 mg
[6] = PNP with PLA-PEG (A) as only polymer, 10 mg polymer
[7] = drug payload only, no polymer (N/A)
[8] = study 2, PLA-PEG (A) 10 mg + pGlu(0.6C10)-PEG (C) 10 mg
[9] = study 2, PLA-PEG (A) 10 mg + pGlu-PEG (B) 10 mg
[10] = study 1, PLA-PEG (A) 10 mg + pGlu(0.6C10)-PEG (C) 10 mg
[11] = study 1, PLA-PEG (A) 10 mg + pGlu-PEG (B) 10 mg
[12] = study 1, PLA-PEG (A) 20 mg only

Row | SMILES | Drug loading [1, 4] | Encapsulation efficiency (EE) [1, 4] | Drug loading [1, 5] | Encapsulation efficiency (EE) [1, 5] | Drug loading [1, 6] | Encapsulation efficiency (EE) [1, 6] | Drug loading [1, 7] | Encapsulation efficiency (EE) [1, 7] | Drug loading [3, 8] | Encapsulation efficiency (EE) [3, 8] | Drug loading [3, 9] | Encapsulation efficiency (EE) [3, 9] | Drug loading [3, 10] | Encapsulation efficiency (EE) [3, 10] | Drug loading [3, 11] | Encapsulation efficiency (EE) [3, 11] | Drug loading [3, 12] | Encapsulation efficiency (EE) [3, 12] | also measured
1 | CN[C@H](CC(C)C)C(=O)N[C@H]1C(=O)N[C@@H](CC(N)=O)C(=O)N[C@H]2C(=O)N[C@H]3C(=O)N[C@H](C(=O)N[C@H](C(=O)O)c4cc(O)cc(O)c4-c4cc3ccc4O)[C@H](O[C@H]3C[C@](C)(N)[C@@H](O)[C@H](C)O3)c3ccc(c(Cl)c3)Oc3cc2cc(c3O[C@@H]2O[C@H](CO)[C@@H](O)[C@H](O)[C@H]2O[C@H]2C[C@](C)(NCc3ccc(-c4ccc(Cl)cc4)cc3)[C@@H](O)[C@H](C)O2)Oc2ccc(cc2Cl)[C@H]1O [Ori, oritavancin] | 8.7% | 39.3% | 12.3% | 60.6% | 2.3% | 9.8% | 0.0% | 0.0% | 13.4% | 68.1% | 10.6% | 41.0% | – | – | – | – | – | – | Encapsulation efficiency (EE) ([1]; PNP with PLA-PEG (A) 5 mg + pGlu (D) 5 mg, listed as oritavancin): 39.3%; Encapsulation efficiency (EE) ([1]; PNP with PLA-PEG (A) 5 mg + pGlu(0.6C10) (E) 5 mg, listed as oritavancin): 60.6%; Encapsulation efficiency (EE) ([1]; PNP with PLA-PEG (A) as only polymer, 10 mg polymer, listed as oritavancin): 9.8%; Accumulation of oritavancin in infected tibia compared to uninfected tibia ([2]; 24 h post-injection): preferential accumulation of oritavancin in the infected tibia; Plasma concentrations of oritavancin ([2]; up to 4 hours post-injection): comparable and lower plasma concentrations of oritavancin
2 | CCCCCCCCCCNCCNC1(C)CC(OC2C(Oc3c4cc5cc3Oc3ccc(cc3Cl)C(O)C(NC(=O)C(CC(C)C)NC)C(=O)NC(CC(N)=O)C(=O)NC5C(=O)NC3C(=O)NC(C(=O)CC(C(=O)O)c5cc(O)cc(O)c5-c5cc3ccc5O)C(O)c3ccc(c(Cl)c3)O4)OC(CO)C(O)C2O)OC(C)C1O (stereo not shown) [RV40] | 3.1% | 15.0% | 15.0% | 100.7% | 1.9% | 7.0% | 0.0% | 0.0% | 6.4% | 45.5% | 6.7% | 33.2% | – | – | – | – | – | – | –
3 | CCCCCCCCCCNC(=O)CNC1(C)CC(OC2C(Oc3c4cc5cc3Oc3ccc(cc3Cl)C(O)C3NC(=O)C(NC(=O)C5NC(=O)C(CC(N)=O)NC(=O)C(NC(=O)C(CC(C)C)NC)C(O)c5ccc(c(Cl)c5)O4)c4ccc(O)c(c4)-c4c(O)cc(O)cc4C(C(=O)O)NC3=O)OC(CO)C(O)C2O)OC(C)C1O (stereo not shown) [RV94] | 3.5% | 12.9% | 20.9% | 107.2% | 2.8% | 10.4% | 1.3% | 4.2% | 17.5% | 92.7% | 13.2% | 59.8% | 16.7% | 88.4% | 13.6% | 70.1% | 0.9% | 4.0% | –
4 | CN[C@H](CC(C)C)C(=O)N[C@H]1C(=O)N[C@@H](CC(N)=O)C(=O)N[C@H]2C(=O)N[C@H]3C(=O)N[C@H](C(=O)N[C@H](C(=O)O)c4cc(O)cc(O)c4-c4cc3ccc4O)[C@H](O)c3ccc(c(Cl)c3)Oc3cc2cc(c3O[C@@H]2O[C@H](CO)[C@@H](O)[C@H](O)[C@H]2O[C@H]2C[C@](C)(N)[C@H](O)[C@H](C)O2)Oc2ccc(cc2Cl)[C@H]1O [Vac, vancomycin] | 0.0% | 0.1% | 0.1% | 0.5% | 0.0% | 0.2% | 0.0% | 0.0% | 2.4% | 9.8% | 0.0% | 0.2% | 2.7% | 18.6% | 0.0% | 0.0% | 0.0% | 0.0% | Encapsulation efficiency (EE) ([1]; PNP with PLA-PEG (A) 5 mg + pGlu (D) 5 mg, listed as vancomycin): 0.1%; Encapsulation efficiency (EE) ([1]; PNP with PLA-PEG (A) 5 mg + pGlu(0.6C10) (E) 5 mg, listed as vancomycin): 0.5%; Encapsulation efficiency (EE) ([1]; PNP with PLA-PEG (A) as only polymer, 10 mg polymer, listed as vancomycin): 0.2%; Encapsulation efficiency (EE) ([3]; study 1, PLA-PEG (A) 10 mg + pGlu-PEG (B) 10 mg, listed as vancomycin): 0.0%; Encapsulation efficiency (EE) ([3]; study 1, PLA-PEG (A) 20 mg only, listed as vancomycin): 0.0%
